These results are taken from patent US20120165319A1, “INHIBITORS OF INTERLEUKIN-1 BETA CONVERTING ENZYME” (VERTEX PHARMACEUTICALS INCORPORATED, priority 1995, published 2012).

The subject of assay [1] is IL-1β, human peripheral blood mononuclear cells (PBMC). Briefly: PBMC cell assay: IL-1β assay with human PBMC or enriched adherent mononuclear cells, LPS-stimulated. Type of assay: cell-based. In outline:
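Mature IL-1β is measured by ELISA in supernatants after 16–18 hr at 37 °C, 5% CO2, with LPS (5 ng/ml final) and test compound (0.1% DMSO final). Cells are human PBMC (6×10^6 cells/ml) or plate-adherent mononuclear cells (2.5−3.0×10^5 per well), and the 5–6 compound concentrations span the ICE Ki.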

Assay [2] relates to IL-1β, human whole blood. Briefly: Whole blood assay for IL-1β production. Type of assay: cell-based. Particulars: read-out: Whole human blood IC50. Put shortly:
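IL-1β was quantified by ELISA in plasma diluted 1:200. The plasma came from EDTA-anticoagulated human whole blood incubated at 30 °C for 16-18 h with LPS (final 5.0 ng/ml) plus a saline serial dilution of compound. Controls were no-LPS, no-inhibitor and highest-vehicle.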

Where [3] appears, read: * = values obtained upon reassay.
Setting [4] is: Homo sapiens, PBMC, * = values obtained upon reassay.
Where [5] appears, read: Homo sapiens, * = values obtained upon reassay.

Structures are written as SMILES. pIC50: −log10 of the molar value. Read-outs that look alike come from different tables or passages of the source. Where only a bound is given, the exact number is not on record here.

Usually pIC50 stands for the IC50 on a negative log10 scale, so that one unit is a factor of ten.

Turning to `CC(C)CC(=O)Nc1ccc(C(=O)N[C@H]2CCC(=O)N3CCC[C@@H](C(=O)N[C@H](C=O)CC(=O)O)N3C2=O)cc1` [Compound 487, [3S(1S,9S)]3-{6,10-Dioxo-9-[4-(3-methylbutan-1-oylamino)benzamido]-1,2,3,4,7,8,9,10-octahydro-6H-pyridazino[1,2-a][1,2]diazepine-1-carboxamido}-4-oxobutanoic acid], the pIC50 in assay [1] (setting [3]) is 6.02; in assay [1] (setting [4]) it was 6.19; in assay [2] (setting [3]), 6.40; in assay [2] (setting [5]), 6.30.

Regarding `CC(=O)Nc1ccc(C(=O)N[C@H]2CCC(=O)N3CCC[C@@H](C(=O)N[C@H](C=O)CC(=O)O)N3C2=O)cc1Cl` [Compound 214l, [3S(1S,9S)]3-(9-(3-Chloro-4-acetamidobenzoyl)amino-6,10-dioxo-1,2,3,4,7,8,9,10-octahydro-6H-pyridazino[1,2-a][1,2]diazepine-1-carboxamido)-4-oxobutanoic acid], the pIC50 in assay [1] (Homo sapiens, PBMC, Table 17) was 5.72; in assay [2] (Homo sapiens, Table 17), 5.96.

As to `CCOC(=O)C[C@H](NC(=O)[C@@H]1CCCN2C(=O)CC[C@H](NC(=O)c3ccccc3)C(=O)N12)C(OCC)OCC` [Compound 2100b], the negative-log IC50 (pIC50) in assay [1] (setting [4]) and in assay [2] (setting [5]) was below 4.70 each time.

For the compound `O=C1C[C@H](NC(=O)[C@@H]2CCCN3C(=O)CC[C@H](NC(=O)c4ccccc4)C(=O)N23)C(OCc2ccccc2)O1` (single isomer, unassigned) [Compound 2100n], the pIC50 in assay [1] (Homo sapiens, PBMC, Table 17) was 6.11; in assay [2] (Homo sapiens, Table 17), 5.40.

With `O=C1C[C@H](NC(=O)[C@@H]2CCCN3C(=O)CC[C@H](NC(=O)c4ccccc4)C(=O)N23)[C@H](OCc2ccccc2)O1` [Compound 2100o, [1S,9S(2R,3S)]9-Benzoylamino-N-(2-benzyloxy-5-oxotetrahydrofuran-3-yl)-6,10-dioxo-1,2,3,4,7,8,9,10-octahydro-6H-pyridazino[1,2-a][1,2]diazepine-1-carboxamide], the negative logarithm of the IC50 (pIC50) is 5.94 in assay [1] (Homo sapiens, PBMC, Table 17) and 5.82 in assay [2] (Homo sapiens, Table 17).

On to `O=C1C[C@H](NC(=O)[C@@H]2CCCN3C(=O)CC[C@H](NC(=O)C(=O)c4ccccc4)C(=O)N23)C(OCc2ccccc2)O1` (stereo partly drawn) [Compound 2001, [1S,9S(2RS,3S)]9-Benzoylformylamino-6,10-dioxo-1,2,3,4,7,8,9,10-octahydro-N-(2(R,S)-benzyloxy-5-oxotetrahydrofuran-3-yl)-6H-pyridazino[1,2-a][1,2]-diazepine-1-carboxamide], for which the pIC50 in assay [1] (setting [4]) was 5.74; in assay [2] (setting [5]), 5.46.

In the case of `O=C[C@H](CC(=O)O)NC(=O)CN1C(=O)[C@@H](NC(=O)c2nccc3ccccc23)CN(C(=O)CO)c2ccccc21` [Compound 696, (3S)-3-[(3S)-2-Oxo-3-(isoquinolin-1-oyl)amino-5-hydroxyacetyl-2,3,4,5-tetrahydro-1H-1,5-benzodiazepine-1-acetylamino]-4-oxo-butyric acid], the negative-log IC50 (pIC50) is 5.70 in assay [1] (Homo sapiens, PBMC, Table 17) and 5.54 in assay [2] (Homo sapiens, Table 17).

In the case of `O=C[C@H](CC(=O)O)NC(=O)[C@@H]1CCCN2C(=O)CCN(NC(=O)c3cc4ccccc4[nH]3)C(=O)N12` [Compound 1075, [3S(4S)]3-[6,10-Dioxo-7-(indole-2-carboxamido)-1,2,3,4,7,8,9,10-octahydro-6H-pyridazino[1,2-a][1,2,4]triazepine-4-carboxamido]-4-oxobutanoic acid], the negative logarithm of the IC50 (pIC50) in assay [1] (Homo sapiens, PBMC, Table 17) was 5.30; in assay [2] (Homo sapiens, Table 17), 5.26.

For `Cc1nc(C)c(C(=O)N[C@H]2CCC(=O)N3CCC[C@@H](C(=O)N[C@H](C=O)CC(=O)O)N3C2=O)s1` [Compound 423], the pIC50 in assay [1] (setting [3]) is 5.74; in assay [1] (setting [4]) it was 5.68; in assay [2] (setting [5]), 5.82.

Regarding `COCC(=O)N1C[C@H](NC(=O)c2cccc3ccccc23)C(=O)N(CC(=O)N[C@H](C=O)CC(=O)O)c2ccccc21` [Compound 2201, (3S)-3-[(3S)-2-oxo-3-(1-naphthoyl)amino-5-methoxyacetyl-2,3,4,5-tetrahydro-1H-1,5-benzodiazepine-1-acetylamino]4-oxo-butyric acid], the pIC50 in assay [1] (setting [3]) is 5.43; in assay [1] (setting [4]) it was 5.70; in assay [2] (setting [5]) it was 5.46.

Regarding `O=C[C@H](CC(=O)O)NC(=O)[C@@H]1CCCN2C(=O)CC[C@H](NC(=O)c3ccsc3)C(=O)N12` [Compound 410], the pIC50 in assay [1] (setting [4]) is 5.70; in assay [2] (setting [5]) it was 5.55.

Regarding `CCOC1OC(=O)C[C@@H]1NC(=O)[C@@H]1CCCN2C(=O)CC[C@H](NC(=O)c3ccccc3)C(=O)N12` (stereo partly drawn) [Compound 2100e, [1S,9S(2RS,3S)]9-Benzoylamino-6,10-dioxo-1,2,3,4,7,8,9,10-octahydro-N-(2-ethoxy-5-oxo-tetrahydro-furan-3-yl)-6H-pyridazino[1,2-a][1,2]-diazepine-1-carboxamide], the pIC50 in assay [1] (setting [4]) is 6.10; in assay [2] (setting [5]), 6.22.

For the compound `COCC(=O)N1C[C@H](NC(=O)c2ccccc2)C(=O)N(CC(=O)N[C@H](C=O)CC(=O)O)c2ccccc21` [Compound 605e, (3S)-3-[(3S)-2-Oxo-3-benzoylamino-5-methoxyacetyl-2,3,4,5-tetrahydro-1H-1,5-benzodiazepin-1-acetylamino]-4-oxo-butyric acid], the pIC50 was 5.65 in assay [1] (setting [4]) and below 5.00 in assay [2] (setting [5]).

Take `O=C[C@H](CC(=O)O)NC(=O)[C@@H]1CCCN2C(=O)CC[C@H](NC(=O)c3ccc(NC(=O)Cc4ccccc4)cc3)C(=O)N12` [Compound 486, [3S(1S,9S)]3-{6,10-Dioxo-1,2,3,4,7,8,9,10-octahydro-9-[4-(phenylacetamido)benzamido]-6H-pyridazino[1,2-a][1,2]diazepine-1-carboxamido}-4-oxobutanoic acid]: the pIC50 in assay [1] (setting [3]) was 6.24; in assay [1] (setting [4]) it was 6.32; in assay [2] (setting [5]), 6.30.

With `O=C(O)C[C@H](NC(=O)[C@@H]1CCCN2C(=O)CC[C@H](NC(=O)c3ccccc3)C(=O)N12)C(=O)CSc1nnnn1-c1ccccc1` [Compound 280, [3S(1S,9S)]3-(9-Benzoylamino-6,10-dioxo-1,2,3,4,7,8,9,10-octahydro-6H-pyridazino[1,2-a][1,2]diazepine-1-carboxamido)-4-oxo-5(1-phenyl-1H-tetrazole-5-thio)pentanoic acid], the pIC50 is 6.19 in assay [1] (setting [4]) and below 6.00 in assay [2] (setting [5]).

On to `O=C[C@H](CC(=O)O)NC(=O)[C@@H]1CCCN2C(=O)CC[C@H](NC(=O)c3cc4ccsc4s3)C(=O)N12` [Compound 442], for which the pIC50 was 6.05 in assay [1] (setting [4]) and 5.70 in assay [2] (setting [5]).

On to `CC(=O)N1C[C@H](NC(=O)c2cc(C)c(O)c(C)c2)C(=O)N(CC(=O)N[C@H](C=O)CC(=O)O)c2ccccc21` [Compound 671, (3S)-3-[(3S)-2-Oxo-3-(3,5-dimethyl-4-hydroxybenzoyl)amino-5-acetyl-2,3,4,5-tetrahydro-1H-1,5-benzodiazepine-1-acetylamino]-4-oxo-butyric acid], for which the negative-log IC50 (pIC50) in assay [1] (Homo sapiens, PBMC, Table 17) is 5.70; in assay [2] (Homo sapiens, Table 17), 5.60.

For the compound `COC(=O)N[C@H]1CCC(=O)N2CCC[C@@H](C(=O)N[C@@H](CC(=O)O)C(=O)COC(=O)c3c(Cl)cccc3Cl)N2C1=O` [Compound 284, [3S(1S,9S)]5-(2,6-Dichlorobenzoyloxy)-3-[6,10-dioxo-9-(methoxycarbonyl)amino-1,2,3,4,7,8,9,10-octahydro-6H-pyridazino[1,2-a][1,2]diazepine-1-carboxamido]-4-oxopentanoic acid], the negative-log IC50 (pIC50) is 6.33 in assay [1] (setting [4]) and 6.26 in assay [2] (setting [5]).

`CC(=O)N1C[C@H](NC(=O)c2cc(Cl)c(O)c(Cl)c2)C(=O)N(CC(=O)N[C@H](C=O)CC(=O)O)c2ccccc21` [Compound 656, (3S)-3-[(3S)-2-Oxo-3-(3,5-dichloro, 4-hydroxybenzoyl)amino-5-acetyl-2,3,4,5-tetrahydro-1H-1,5-benzodiazepine-1-acetylamino-]4-oxo-butyric acid]: the pIC50 is 5.68 in assay [1] (Homo sapiens, PBMC, Table 17) and 5.80 in assay [2] (Homo sapiens, Table 17).

For the compound `O=C[C@H](CC(=O)O)NC(=O)CN1C(=O)[C@@H](NC(=O)c2cc(Cl)c(O)c(Cl)c2)CN(C(=O)CO)c2ccccc21` [Compound 662, (3S)-3-[(3S)-2-Oxo-3-(3,5-dichloro-4-hydroxybenzoyl)amino-5-(2-hydroxy)acetyl-2,3,4,5-tetrahydro-1H-1,5-benzodiazepine-1-acetylamino]-4-oxo-butyric acid], the negative-log IC50 (pIC50) was 5.74 in assay [1] (Homo sapiens, PBMC, Table 17) and 6.10 in assay [2] (Homo sapiens, Table 17).

In the case of `O=C(O)C[C@H](NC(=O)[C@@H]1CCCN2C(=O)CC[C@H](NC(=O)c3ccccc3)C(=O)N12)C(=O)COc1cccnc1` [Compound 283, [3S(1S,9S)]3-[9-Benzoylamino-6,10-dioxo-1,2,3,4,7,8,9,10-octahydro-6H-pyridazino[1,2-a][1,2]diazepine-1-carboxamido]-4-oxo-5-(3-pyridyloxy)pentanoic acid], the results for the pIC50 in assay [1] (setting [4]) and in assay [2] (setting [5]) were above 6.70 and 6.35, respectively.

Regarding `O=C(O)C[C@H](NC(=O)[C@@H]1CCCN2C(=O)CC[C@H](NC(=O)CCc3ccccc3)C(=O)N12)C(=O)COC(=O)c1c(Cl)cccc1Cl` [Compound 136], the negative-log IC50 (pIC50) in assay [1] (setting [4]) was 6.06; in assay [2] (setting [5]), 5.55.

Regarding `CC(C)OC1OC(=O)C[C@@H]1NC(=O)[C@@H]1CCCN2C(=O)CC[C@H](NC(=O)c3ccccc3)C(=O)N12` (stereo partly drawn) [Compound 2100a, [1S,9S(2RS,3S)]9-Benzoylamino-6,10-dioxo-1,2,3,4,7,8,9,10-octahydro-N-(2-isopropoxy-5-oxo-tetrahydro-furan-3-yl)-6H-pyridazino-[1,2-a][1,2]diazepine-1-carboxamide], the pIC50 in assay [1] (setting [4]) is 5.96; in assay [2] (setting [5]), 6.07.

With `COc1cccc2nc(C(=O)[C@H](CC(=O)O)NC(=O)[C@@H]3CCCN4C(=O)CC[C@H](NC(=O)CCc5ccccc5)C(=O)N34)oc12` [Compound 135a], the negative logarithm of the IC50 (pIC50) in assay [1] (setting [4]) was 5.55; in assay [2] (setting [5]), 5.30.
